The source of these data is ChEMBL document CHEMBL5584244, “Discovery of novel pyrrolo[2,1-c][1,4]benzodiazepine-3,11-dione (PBD) derivatives as selective HDAC6 inhibitors for the efficient treatment of idiopathic pulmonary fibrosis (IPF) in vitro and in vivo” (Eur J Med Chem, 2024).

Where only a bound is given, the exact number is not on record here.

Data set [1] can be described thus: Intrinsic clearance in human liver microsomes at 100 uM incubated upto 60 mins by LC-MS/MS analysis. The data set is classed as ADME, Microsome. The note with it: read-out: CLH.
Data set [2] deals with T1, TGF-beta receptor type-1 (Homo sapiens) (UniProt P36897).
T1 sequence (whole entry): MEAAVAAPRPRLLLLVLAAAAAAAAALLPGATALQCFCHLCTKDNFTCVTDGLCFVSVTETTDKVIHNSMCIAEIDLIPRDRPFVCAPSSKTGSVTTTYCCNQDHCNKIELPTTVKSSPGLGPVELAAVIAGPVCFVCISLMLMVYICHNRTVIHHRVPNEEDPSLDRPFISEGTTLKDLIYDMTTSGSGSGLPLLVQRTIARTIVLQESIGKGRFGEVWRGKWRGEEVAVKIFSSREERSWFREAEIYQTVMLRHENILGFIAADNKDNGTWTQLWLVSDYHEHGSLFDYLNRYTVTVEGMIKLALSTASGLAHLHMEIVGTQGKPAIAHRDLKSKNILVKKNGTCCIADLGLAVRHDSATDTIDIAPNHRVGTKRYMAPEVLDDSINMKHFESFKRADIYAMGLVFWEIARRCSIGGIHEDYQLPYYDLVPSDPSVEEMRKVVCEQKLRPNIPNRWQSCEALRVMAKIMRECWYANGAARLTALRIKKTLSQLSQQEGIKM
Briefly: Inhibition of TGF-beta1-induced TGFbetaR1 protein phosphorylation level in HELF cells incubated for 48 hrs by Western blot analysis. The data set is classed as cell-based. The note with it: dose 2.5-10 µM.

`CC(=O)O.O=C(NO)c1ccc(CN2C(=O)[C@@H]3CCCN3Cc3ccccc32)cc1`: the microsomal CLint at 100 µM in data set [1] is under 9.6 µL/min/mg. Further, the inhibition entry in data set [2] is “Dose-Dependent Effect”.
